Structures are written as SMILES. Some results are limits rather than exact numbers.

The target of this assay is T1, human TLR7 (Homo sapiens, UniProt Q9NYK1).
T1 construct: host or cells: HEK293 (HEK-Blue hTLR7)
T1 sequence (Q9NYK1 27-1049): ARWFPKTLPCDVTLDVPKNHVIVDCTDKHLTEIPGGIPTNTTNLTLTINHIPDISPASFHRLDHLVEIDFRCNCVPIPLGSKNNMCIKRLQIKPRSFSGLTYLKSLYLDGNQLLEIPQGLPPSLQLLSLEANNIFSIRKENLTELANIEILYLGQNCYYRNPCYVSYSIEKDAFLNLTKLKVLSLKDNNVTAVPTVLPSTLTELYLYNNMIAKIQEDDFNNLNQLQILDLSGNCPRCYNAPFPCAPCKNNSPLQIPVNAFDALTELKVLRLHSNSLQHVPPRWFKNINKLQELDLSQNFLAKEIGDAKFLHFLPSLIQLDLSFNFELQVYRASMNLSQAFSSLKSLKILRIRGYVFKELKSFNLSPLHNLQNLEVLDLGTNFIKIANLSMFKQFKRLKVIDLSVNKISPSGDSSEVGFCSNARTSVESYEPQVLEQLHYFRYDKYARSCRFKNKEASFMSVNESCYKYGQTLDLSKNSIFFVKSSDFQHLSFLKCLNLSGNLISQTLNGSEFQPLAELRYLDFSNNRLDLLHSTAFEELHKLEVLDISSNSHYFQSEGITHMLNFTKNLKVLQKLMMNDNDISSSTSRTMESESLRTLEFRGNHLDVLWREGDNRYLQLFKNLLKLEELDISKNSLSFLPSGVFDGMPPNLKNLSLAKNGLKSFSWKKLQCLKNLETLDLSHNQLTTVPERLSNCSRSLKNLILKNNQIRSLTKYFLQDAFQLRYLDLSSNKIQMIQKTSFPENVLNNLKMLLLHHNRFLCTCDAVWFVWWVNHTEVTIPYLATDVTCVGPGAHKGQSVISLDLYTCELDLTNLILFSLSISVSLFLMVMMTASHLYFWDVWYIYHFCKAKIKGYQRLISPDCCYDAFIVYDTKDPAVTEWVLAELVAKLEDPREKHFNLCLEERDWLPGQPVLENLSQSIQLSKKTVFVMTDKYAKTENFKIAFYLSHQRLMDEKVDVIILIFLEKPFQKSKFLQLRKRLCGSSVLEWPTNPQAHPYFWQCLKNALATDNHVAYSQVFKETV
Briefly: HEK293-Blue-hTLR-7 cells assay. The assay is classed as cell-based. The settings on record: HEK293-Blue-hTLR7 cells, R848 stimulation, 20 hrs, SEAP reporter; read-out: HEK/hTLR7 IC50. An excerpt:
HEK293-Blue-hTLR-7 cells assay:
A stable HEK293-Blue-hTLR-7 cell line was purchased from InvivoGen (Cat. #: hkb-htlr7, San Diego, Calif., USA). These cells were originally designed for studying the stimulation of human TLR7 by monitoring the activation of NF-κB. A SEAP (secreted embryonic alkaline phosphatase) reporter gene was placed under the control of the IFN-β minimal promoter fused to five NF-κB and AP-1-binding sites. The SEAP was induced by activating NF-κB and AP-1 via stimulating HEK-Blue hTLR7 cells with TLR7 ligands. Therefore the reporter expression was declined by TLR7 antagonist under the stimulation of a ligand, such as R848 (Resiquimod), for incubation of 20 hrs. The cell culture supernatant SEAP reporter activity was determined using QUANTI-Blue™ kit (Cat. #: rep-qb1, Invivogen, San Diego, Ca, USA) at a wavelength of 640 nm, a detection medium that turns purple or blue in the presence of alkaline phosphatase.
HEK293-Blue-hTLR7 cells were incubated at a density of 250,000-450,000 cells/mL in a volume of 170 μL in a 96-well plate in Dulbecco's Modified Eagle's medium (DMEM) containing 4.5 g/L glucose, 50 U/mL penicillin, […], […], 2 mM L-glutamine, 10% (v/v) heat-inactivated fetal bovine serum with addition of 20 μL test compound in a serial dilution in the presence of final DMSO at 1% and 10 μL of 20 uM R848 in above DMEM, perform incubation under 37° C. in a CO2 incubator for 20 hrs. Then 20 μL of the supernatant from each well was incubated with 180 μL Quanti-blue substrate solution at 37° C. for 2 hrs and the absorbance was read at 620˜655 nm using a spectrophotometer. The signaling pathway that TLR7 activation leads to downstream NF-κB activation has been widely accepted, and therefore similar reporter assay was modified for evaluating TLR7 antagonist.
As to `CCN1CCc2cn(C3CN(C[C@H]4CN(c5ccc(C#N)c6ncccc56)C[C@@H](C)O4)C3)nc2C1` [Example 7, 5-[(2S,6R)-2-[[3-(6-ethyl-5,7-dihydro-4H-pyrazolo[3,4-c]pyridin-2-yl)azetidin-1-yl]methyl]-6-methyl-morpholin-4-yl]quinoline-8-carbonitrile], the IC50 was 8 nM. With `C[C@@H]1CN(c2ccc(C#N)c3ncccc23)C[C@H](CN2CC(n3ncc4c3CCN[C@H]4C)C2)O1` [Example 22, 5-[(2R,6S)-2-methyl-6-[[3-[(4S)-4-methyl-4,5,6,7-tetrahydropyrazolo[4,3-c]pyridin-1-yl]azetidin-1-yl]methyl]morpholin-4-yl]quinoline-8-carbonitrile], the IC50 turned out to be 5 nM. The figure for `C[C@@H]1Cc2nn(C3CN(C[C@H]4CN(c5ccc(C#N)c6ncccc56)C[C@@H](C)O4)C3)cc2CN1` [Example 17, 5-[(2R,6S)-2-methyl-6-[[3-[(6R)-6-methyl-4,5,6,7-tetrahydropyrazolo[4,3-c]pyridin-2-yl]azetidin-1-yl]methyl]morpholin-4-yl]quinoline-8-carbonitrile] is 4 nM; for `C[C@@H]1CN(c2ccc(C#N)c3ncccc23)C[C@H](CN2CC(n3cc4c(n3)C[C@H](C)NC4)C2)O1` [Example 19, 5-[(2R,6S)-2-methyl-6-[[3-[(6S)-6-methyl-4,5,6,7-tetrahydropyrazolo[4,3-c]pyridin-2-yl]azetidin-1-yl]methyl]morpholin-4-yl]quinoline-8-carbonitrile] it is 19 nM; for `CCN1CCc2cnn(C3CN(C[C@H]4CN(c5ccc(C#N)c6ncccc56)C[C@@H](C)O4)C3)c2C1` [Example 6, 5-[(2S,6R)-2-[[3-(6-ethyl-5,7-dihydro-4H-pyrazolo[3,4-c]pyridin-1-yl)azetidin-1-yl]methyl]-6-methyl-morpholin-4-yl]quinoline-8-carbonitrile] it is 12 nM.

As to `C[C@@H]1CN(c2ccc(C#N)c3ncccc23)C[C@H](CN2CC(n3cc4c(n3)CCNC4)C2)O1` [Example 2, 5-[(2R,6S)-2-methyl-6-[[3-(4,5,6,7-tetrahydropyrazolo[4,3-c]pyridin-2-yl)azetidin-1-yl]methyl]morpholin-4-yl]quinoline-8-carbonitrile], the IC50 amounted to 25 nM. On to `C[C@@H]1CN(c2ccc(C#N)c3ncccc23)C[C@H](CN2CC(n3ncc4c3[C@H](C)NCC4)C2)O1` (single isomer, unassigned) [Example 32], for which the IC50 is < 3 nM.

For `Cc1c2c(nn1C1CN(C[C@H]3CN(c4ccc(C#N)c5ncccc45)C[C@@H](C)O3)C1)CNCC2` [Example 43, 5-[(2R,6S)-2-methyl-6-[[3-(3-methyl-4,5,6,7-tetrahydropyrazolo[3,4-c]pyridin-2-yl)azetidin-1-yl]methyl]morpholin-4-yl]quinoline-8-carbonitrile], the IC50 was 17 nM. The figure for `C[C@@H]1CN(c2ccc(C#N)c3ncccc23)C[C@H](CN2CC(n3ncc4c3CCN[C@@H]4C)C2)O1` [Example 20, 5-[(2R,6S)-2-methyl-6-[[3-[(4R)-4-methyl-4,5,6,7-tetrahydropyrazolo[4,3-c]pyridin-1-yl]azetidin-1-yl]methyl]morpholin-4-yl]quinoline-8-carbonitrile] is 5 nM; for `C[C@@H]1CN(c2ccc(C#N)c3ncccc23)C[C@H](CN2CC(n3cc4c(n3)[C@@H](C)CNC4)C2)O1` (single isomer, unassigned) [Example 26] it is 6 nM; for `C[C@@H]1CN(c2ccc(C#N)c3ncccc23)C[C@H](CN2CC(n3cc4c(n3)CNCC4)C2)O1` [Example 4, 5-[(2R,6S)-2-methyl-6-[[3-(4,5,6,7-tetrahydropyrazolo[3,4-c]pyridin-2-yl)azetidin-1-yl]methyl]morpholin-4-yl]quinoline-8-carbonitrile] it is 9 nM. Consider `C[C@@H]1Cc2cnn(C3CN(C[C@H]4CN(c5ccc(C#N)c6ncccc56)C[C@@H](C)O4)C3)c2CN1` (single isomer, unassigned) [Example 28], for which the IC50 amounted to 5 nM. The figure for `Cc1nn(C2CN(C[C@H]3CN(c4ccc(C#N)c5ncccc45)C[C@@H](C)O3)C2)c2c1CCNC2` [Example 42, 5-[(2R,6S)-2-methyl-6-[[3-(3-methyl-4,5,6,7-tetrahydropyrazolo[3,4-c]pyridin-1-yl)azetidin-1-yl]methyl]morpholin-4-yl]quinoline-8-carbonitrile] is 7 nM; for `C[C@@H]1CN(c2ccc(C#N)c3ncccc23)C[C@H](CN2CC(n3ncc4c3C[C@H](C)NC4)C2)O1` [Example 18, 5-[(2R,6S)-2-methyl-6-[[3-[(6S)-6-methyl-4,5,6,7-tetrahydropyrazolo[4,3-c]pyridin-1-yl]azetidin-1-yl]methyl]morpholin-4-yl]quinoline-8-carbonitrile] it is 17 nM. Turning to `Cc1nn(C2CN(C[C@H]3CN(c4ccc(C#N)c5ncccc45)C[C@@H](C)O3)C2)c2c1CN(C)CC2` [Example 14, 5-[(2S,6R)-2-[[3-(3,5-dimethyl-6,7-dihydro-4H-pyrazolo[4,3-c]pyridin-1-yl)azetidin-1-yl]methyl]-6-methyl-morpholin-4-yl]quinoline-8-carbonitrile], the IC50 was 26 nM. Turning to `Cc1c2c(nn1C1CN(C[C@H]3CN(c4ccc(C#N)c5ncccc45)C[C@@H](C)O3)C1)CCN(C)C2` [Example 15, 5-[(2S,6R)-2-[[3-(3,5-dimethyl-6,7-dihydro-4H-pyrazolo[4,3-c]pyridin-2-yl)azetidin-1-yl]methyl]-6-methyl-morpholin-4-yl]quinoline-8-carbonitrile], the IC50 turned out to be 9 nM. Turning to `C[C@@H]1Cc2cn(C3CN(C[C@H]4CN(c5ccc(C#N)c6ncccc56)C[C@@H](C)O4)C3)nc2CN1` (single isomer, unassigned) [Example 30], the IC50 was determined as 5 nM. In the case of `C[C@@H]1CN(c2ccc(C#N)c3ncccc23)C[C@H](CN2CC(n3ncc4c3[C@@H](C)NCC4)C2)O1` (single isomer, unassigned) [Example 31], the IC50 is < 3 nM. As for `CC(C)N1CCc2cn(C3CN(C[C@H]4CN(c5ccc(C#N)c6ncccc56)C[C@@H](C)O4)C3)nc2C1` [Example 9, 5-[(2S,6R)-2-[[3-(6-isopropyl-5,7-dihydro-4H-pyrazolo[3,4-c]pyridin-2-yl)azetidin-1-yl]methyl]-6-methyl-morpholin-4-yl]quinoline-8-carbonitrile], the IC50 came to 12 nM. Take `C[C@@H]1CN(c2ccc(C#N)c3ncccc23)C[C@H](CN2CC(n3ncc4c3CNCC4)C2)O1` [Example 3, 5-[(2R,6S)-2-methyl-6-[[3-(4,5,6,7-tetrahydropyrazolo[3,4-c]pyridin-1-yl)azetidin-1-yl]methyl]morpholin-4-yl]quinoline-8-carbonitrile]: the IC50 stood at 3 nM. Consider `C[C@@H]1CN(c2ccc(C#N)c3ncccc23)C[C@H](CN2CC(n3cc4c(n3)CN[C@@H](C)C4)C2)O1` (single isomer, unassigned) [Example 29], for which the IC50 amounted to 8 nM. With `C[C@@H]1CN(c2ccc(C#N)c3ncccc23)C[C@H](CN2CC(n3cc4c(n3)[C@H](C)NCC4)C2)O1` (single isomer, unassigned) [Example 34] the figure was 6 nM.

These data come from US20210300924A1, “5-[6-[[3-(4,5,6,7-TETRAHYDROPYRAZOLO[4,3-C]PYRIDIN-1-YL)AZETIDIN-1-YL]METHYL]MORPHOLIN-4-YL]QUINOLINE-8-CARBONITRILE DERIVATIVES AND SIMILAR COMPOUNDS AS TLR7-9 ANTAGONISTS FOR TREATING SYSTEMIC LUPUS ERYTHEMATOSUS” (Hoffmann-La Roche Inc., priority 2018, published 2021).
